pIC50, pKi: −log10 of the molar value.
Assays:
[1] = DRUGMATRIX: Calcium Channel Type L, Benzothiazepine radioligand binding (ligand: [3H] Diltiazem); type: cell membranes, Rattus norvegicus, Wistar, Brain, Membrane; settings: Not Active = under 50% inhibition at 10 µM
[2] = target: T1, Receptor-type tyrosine-protein phosphatase C (Homo sapiens, UniProt P08575); design: species or system Escherichia coli;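 further: inhibition of CD45 enzyme activity measured using DiFMUP as substrate; in other assays of this panel Not Active means under 50% inhibition at 10 µM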
T1 sequence (P08575 whole entry): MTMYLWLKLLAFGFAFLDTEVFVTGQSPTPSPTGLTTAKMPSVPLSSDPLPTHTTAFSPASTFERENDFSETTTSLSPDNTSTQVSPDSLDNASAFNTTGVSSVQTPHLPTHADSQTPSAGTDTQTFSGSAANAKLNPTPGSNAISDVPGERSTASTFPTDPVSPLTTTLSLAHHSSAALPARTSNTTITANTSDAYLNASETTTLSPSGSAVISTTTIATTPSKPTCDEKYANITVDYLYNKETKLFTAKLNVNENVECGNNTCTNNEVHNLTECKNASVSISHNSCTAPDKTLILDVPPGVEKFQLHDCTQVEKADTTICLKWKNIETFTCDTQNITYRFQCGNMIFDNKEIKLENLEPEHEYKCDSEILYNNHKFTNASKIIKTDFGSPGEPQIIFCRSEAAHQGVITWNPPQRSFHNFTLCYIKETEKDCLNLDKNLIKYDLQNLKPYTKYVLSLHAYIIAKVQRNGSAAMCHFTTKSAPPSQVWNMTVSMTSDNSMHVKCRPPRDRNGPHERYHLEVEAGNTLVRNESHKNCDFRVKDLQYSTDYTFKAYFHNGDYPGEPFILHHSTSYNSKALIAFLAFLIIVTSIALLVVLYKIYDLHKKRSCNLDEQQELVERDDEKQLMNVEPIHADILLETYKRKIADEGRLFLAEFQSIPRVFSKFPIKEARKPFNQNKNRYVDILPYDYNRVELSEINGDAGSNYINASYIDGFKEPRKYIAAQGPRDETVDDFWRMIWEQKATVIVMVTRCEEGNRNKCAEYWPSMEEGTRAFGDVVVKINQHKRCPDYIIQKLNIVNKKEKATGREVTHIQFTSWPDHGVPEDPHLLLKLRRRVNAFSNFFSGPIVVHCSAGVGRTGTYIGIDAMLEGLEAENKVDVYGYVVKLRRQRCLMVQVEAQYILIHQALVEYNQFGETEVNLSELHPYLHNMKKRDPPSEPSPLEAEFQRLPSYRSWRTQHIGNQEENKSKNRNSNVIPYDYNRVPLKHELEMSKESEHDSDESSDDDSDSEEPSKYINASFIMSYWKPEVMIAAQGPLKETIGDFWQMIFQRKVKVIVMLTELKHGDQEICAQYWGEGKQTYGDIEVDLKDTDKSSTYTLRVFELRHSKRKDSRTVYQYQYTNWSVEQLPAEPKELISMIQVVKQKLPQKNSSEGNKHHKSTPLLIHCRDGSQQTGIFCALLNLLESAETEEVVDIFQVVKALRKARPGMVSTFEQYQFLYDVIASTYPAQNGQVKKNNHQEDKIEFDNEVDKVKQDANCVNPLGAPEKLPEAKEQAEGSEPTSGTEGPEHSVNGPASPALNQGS

[3] = target: T2, Alpha-1B adrenergic receptor (Rattus norvegicus, UniProt P15823); experiment: DRUGMATRIX: Alpha-1B adrenergic receptor radioligand binding (ligand: prazosin); type: cell membranes, Wistar, Liver, Membrane; settings: Not Active = under 50% inhibition at 10 µM
T2 sequence (P15823 whole entry): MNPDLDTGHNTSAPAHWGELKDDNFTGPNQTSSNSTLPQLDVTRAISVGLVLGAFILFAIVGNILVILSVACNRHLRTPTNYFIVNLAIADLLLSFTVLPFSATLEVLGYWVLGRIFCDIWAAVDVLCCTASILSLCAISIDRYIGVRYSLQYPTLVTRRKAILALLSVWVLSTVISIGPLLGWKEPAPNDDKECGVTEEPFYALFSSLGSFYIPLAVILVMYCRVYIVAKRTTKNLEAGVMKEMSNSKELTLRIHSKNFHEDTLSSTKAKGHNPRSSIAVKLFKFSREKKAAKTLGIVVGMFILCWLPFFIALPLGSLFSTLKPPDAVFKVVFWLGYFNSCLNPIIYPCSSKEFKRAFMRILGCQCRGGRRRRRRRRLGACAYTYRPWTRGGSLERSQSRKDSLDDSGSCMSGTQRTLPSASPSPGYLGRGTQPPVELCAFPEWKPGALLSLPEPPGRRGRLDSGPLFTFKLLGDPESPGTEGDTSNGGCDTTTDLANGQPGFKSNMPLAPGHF

Melanocortin receptor 4 = Melanocortin receptor 4 (Homo sapiens, UniProt P32245); type: cell membranes, Membrane; settings: hek293; further: in other assays of this panel Not Active means under 50% inhibition at 10 µM
Melanocortin receptor 4, sequence (P32245 whole entry): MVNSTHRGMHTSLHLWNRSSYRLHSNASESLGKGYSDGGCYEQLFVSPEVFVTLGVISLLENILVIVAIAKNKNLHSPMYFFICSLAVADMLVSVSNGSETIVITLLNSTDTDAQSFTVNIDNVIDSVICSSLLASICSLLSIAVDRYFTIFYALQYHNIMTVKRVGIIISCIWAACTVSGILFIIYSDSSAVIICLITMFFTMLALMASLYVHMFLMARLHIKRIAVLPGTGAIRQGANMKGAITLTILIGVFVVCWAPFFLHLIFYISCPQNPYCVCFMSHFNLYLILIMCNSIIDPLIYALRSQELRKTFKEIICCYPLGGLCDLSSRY

[4] = DRUGMATRIX: ATPase, Na+/K+ enzyme inhibition (substrate: ATP); type: tissue-based, Sus scrofa, Heart; settings: Not Active = under 50% inhibition at 10 µM
[5] = DRUGMATRIX: Potassium Channel [KATP] radioligand binding (ligand: [3H] Glyburide); type: cell membranes, Membrane; settings: hit-t15; Not Active = under 50% inhibition at 10 µM

| Compound | IC50 [1] | Ki [1] | IC50 [2] | IC50 [3] | IC50 (Melanocortin receptor 4) | IC50 [4] | Ki [4] | IC50 [5] | Ki [5] | Ki [2] | Ki [3] | Ki (Melanocortin receptor 4) | pIC50 ([3]; read-out: IC50) | pKi ([3]; read-out: Ki) | pIC50 ([1]; read-out: IC50) | pKi ([1]; read-out: Ki) |
| --- | --- | --- | --- | --- | --- | --- | --- | --- | --- | --- | --- | --- | --- | --- | --- | --- |
| Clc1cc2c(cc1Cl)Oc1cc(Cl)c(Cl)cc1O2 [2,3,7,8-TETRACHLORODIBENZO-P-DIOXIN] | Not Active | Not Active | Not Active | Not Active | Not Active | Not Active | Not Active | Not Active | Not Active | – | – | – | – | – | – | – |
| Nn1nnc2ccccc21 | Not Active | Not Active | Not Active | Not Active | Not Active | Not Active | Not Active | Not Active | Not Active | – | – | – | – | – | – | – |
| COc1ccccc1OCC(O)COC(N)=O (configuration not stated) [METHOCARBAMOL] | Not Active | Not Active | Not Active | Not Active | Not Active | Not Active | Not Active | Not Active | Not Active | – | – | – | – | – | – | – |
| CC(C(=O)O)c1ccc(-c2ccccc2)c(F)c1 (configuration not stated) [FLURBIPROFEN] | Not Active | Not Active | Not Active | Not Active | Not Active | Not Active | Not Active | Not Active | Not Active | – | – | – | – | – | – | – |
| Cc1c(F)c(N2CCNC(C)C2)cc2c1c(=O)c(C(=O)O)cn2C1CC1 (configuration not stated) [GREPAFLOXACIN] | Not Active | Not Active | Not Active | Not Active | Not Active | Not Active | Not Active | Not Active | Not Active | – | – | – | – | – | – | – |
| Oc1ccccc1O [CATECHOL] | Not Active | Not Active | Not Active | Not Active | Not Active | Not Active | Not Active | Not Active | Not Active | – | – | – | – | – | – | – |
| O=P1(N(CCCl)CCCl)NCCCO1 (configuration not stated) [CYCLOPHOSPHAMIDE ANHYDROUS] | Not Active | Not Active | Not Active | Not Active | Not Active | Not Active | Not Active | Not Active | Not Active | – | – | – | – | – | – | – |
| INSULIN HUMAN | Not Active | Not Active | Not Active | Not Active | Not Active | Not Active | Not Active | Not Active | Not Active | Not Active | Not Active | Not Active | – | – | – | – |
| CS(=O)(=O)OCCCCOS(C)(=O)=O [BUSULFAN] | Not Active | Not Active | Not Active | Not Active | Not Active | Not Active | Not Active | Not Active | Not Active | – | – | – | – | – | – | – |
| CC(C)(CO)C(O)C(=O)NCCCO (configuration not stated) [PANTHENOL] | Not Active | Not Active | Not Active | Not Active | Not Active | Not Active | Not Active | Not Active | Not Active | – | – | – | – | – | – | – |
| O=C(O)c1cc(=O)c2c(OCC(O)COc3cccc4oc(C(=O)O)cc(=O)c34)cccc2o1 [CROMOLYN] | Not Active | Not Active | Not Active | Not Active | Not Active | Not Active | Not Active | Not Active | Not Active | – | – | – | – | – | – | – |
| O=C(/C=C/c1ccc(O)c(O)c1)OCCc1ccccc1 [CAFFEIC ACID PHENETHYL ESTER] | Not Active | Not Active | Not Active | Not Active | Not Active | Not Active | Not Active | Not Active | Not Active | – | – | – | – | – | – | – |
| Nc1nc(Cl)nc2c1ncn2[C@H]1C[C@H](O)[C@@H](CO)O1 [CLADRIBINE] | Not Active | Not Active | Not Active | Not Active | Not Active | Not Active | Not Active | Not Active | Not Active | – | – | – | – | – | – | – |
| CN1C[C@H](C(=O)N[C@]2(C)O[C@@]3(O)[C@@H]4CCCN4C(=O)[C@H](Cc4ccccc4)N3C2=O)C[C@@H]2c3cccc4[nH]cc(c34)C[C@H]21 [DIHYDROERGOTAMINE] | Not Active | Not Active | Not Active | – | Not Active | Not Active | Not Active | Not Active | Not Active | – | – | – | 8.09 | 8.35 | – | – |
| CC[C@H](C)C(=O)O[C@H]1C[C@H](O)C=C2C=C[C@H](C)[C@H](CC[C@@H](O)C[C@@H](O)CC(=O)O)[C@H]21 [PRAVASTATIN] | Not Active | Not Active | Not Active | Not Active | Not Active | Not Active | Not Active | Not Active | Not Active | – | – | – | – | – | – | – |
| CCOC(=O)n1ccn(C)c1=S [CARBIMAZOLE] | Not Active | Not Active | Not Active | Not Active | Not Active | Not Active | Not Active | Not Active | Not Active | – | – | – | – | – | – | – |
| C#C[C@]1(O)CC[C@H]2[C@@H]3CCC4=Cc5oncc5C[C@]4(C)[C@H]3CC[C@@]21C [DANAZOL] | – | – | Not Active | Not Active | Not Active | Not Active | Not Active | Not Active | Not Active | – | – | – | – | – | 4.83 | 4.89 |
